Consider 22 compounds from patent publication US20250287942A1, “FORMULATIONS FOR REPELLING BEES AND OTHER INSECTS” (priority 2022, published 2025).

Data set [1] in a line: TGA volatility at 40 degrees Celsius (Example 3). The data set is classed as physicochemical. The settings on record: isothermal at 40° C. for 900 minutes, slope from 800-900 minutes. The protocol:
Volatility may be measured by Thermogravimetric Analysis (TGA) method. Volatility of bee repellent compounds is measured by TGA at 40° C. (i.e., as bee repellent wt % loss per min at 40° C.). In some variations, a “high volatility” bee repellent compound has a volatility greater than 1E-04 (wt % loss/min at 40° C.). In some variations, a “low volatility” bee repellent compound has a bee repellent volatility less than 1E-04 (wt % loss/min at 40° C.).
A TA Instruments TGA5500 was used to determine the volatility of bee repellent chemicals at 40 degrees Celsius. The sample purge was set for 25 mL/min and the balance purge is set for 10 mL/min. A 30 mg sample of the chemical was placed in the sample pan, the temperature was ramped up to 40° C. at a rate of 10° C./min and was held isothermal at 40° C. for 900 minutes. The slope was then determined from 800-900 minutes to determine its volatility. The volatility of bee repellent compounds were determined according to Table 6 below.

The test system of data set [2] is honey bee workers (Apis mellifera). The data set is described as follows: 2-choice plate (petri-dish arena) assay, honey vs honey plus repellent candidate. The data set is classed as in vivo. Conditions: 2-choice plate assay; for First choice Preference Index (repellent side): first visit and drink (repellent - solvent)/(repellent + solvent); for Honey consumption Preference Index (repellent side): plates where honeybees drank more honey from (repellent - solvent)/(repellent + solvent). The protocol: To date, we used capped brood frames from 10 colonies kept in three apiaries on campus at UC Riverside. After moving the brood (pupated honey bee larvae) into an observation frame inside an incubator overnight, we collected freshly emerged honey bee workers into groups of 80 per cage, providing them with a small piece of wax foundation, 50% sugar water and tap water ad libitum. Between day 3 and day 10 post emergence, we provided them with a protein dough. We removed dead workers and exchanged food every second day. After the bees reached foraging age (13-19 days post emergence), we grouped them into cages of 40 workers, each. To ensure that they were hungry enough to participate in our trials, we starved the workers before each experiment, depending on their age. Between 13 and 16 days of age, we wet-starved them for 17 hours by removing the sugar water tube from their cage, replacing it with an empty vial. Bees aged between 17 and 19 days were starved for six hours, only, to ensure their survival. On the day of the experiment, we removed dead bees and food vials from each cage, and placed the cage into a refrigerator, until the trial arena was ready, and the bees were cool enough to not move anymore.
To turn a 15 cm petri-dish into a 2-choice test arena, we taped a paper-grid on the outside of its bottom, establishing one side as honey (H) and the other as honey plus repellent candidate (HR, FIG. 3). Next, we pipetted 20 ul of pure acetone onto a 6 mm punch-out of filter paper, then let it evaporate in the fume hood for at least 30 min. We then taped the punch-out to the H-spot on the petri-dish. Repeating the process with 20 ul of the repellent candidate (5% in acetone), again letting the acetone evaporate for at least 30 Min, we stuck the now solely repellent-candidate-soaked punch-out onto the HR spot of the arena. To entice the bees to participate in our trial, we used a pipette and filled two 70 ul lids of PCR tubes full of pure, slightly warmed honey, until we observed a meniscus. We then taped one honey-filled lid onto the H, the other onto the HR filter paper, being careful not to disturb the meniscus.
We placed six prepared arenas onto a heating pillow turned onto level 1 (FIG. 2B), removed the cooled honey bee workers from the fridge and grouped between four and five bees into each plate, using insect tweezers. We filmed the bees for 60 Minutes, using an ipad (video at wide-angle, 0.5). To avoid glare, we staged the ipad on top of a plexi glass pane held by a cage constructed from pvc tubes, and covered with a double cotton sheet.
After each trial, we counted those plates, in which the honey wells had been touched as participating plates. We repeated the trials often enough to ensure participation in a minimum of five plates per repellent candidate. For each of the participating plates, we then screened each video to find the first bee that chose a honey well to drink from. The choice was recorded as either Honey (H) or Honey and repellent candidate (HR). We then calculated a Preference Index for each repellent candidate as follows: Number of repellent candidate choices minus number of honey choices) divided by sum of all choices).
The negative indexes indicate, that the honey bee workers did avoid the repellent candidates, but to varying degrees. The preference indexes show the first choices of honey bee workers (Apis mellifera) offered honey on filter paper with repellent-candidates versus honey only. Groups of 4-5 honeybee workers were placed in each 2-choice arena. Indexes are calculated per repellent candidate as (total number of repellent choices minus total number of solvent choices) divided by sum of all choices).
Preference Indexes for repellent candidates were determined in a manner similar to that described in Example 1. […]

The nature of data set [3]: TGA volatility method of Example 4. Conditions: 40° C. isothermal for 15 hours, slope between 800-900 minutes. In kind it is physicochemical. As for the experimental part:
Two BR3.3A (liquid) and BR 4.5 (solid) bee repellents were used in this example for comparison. BR 3.3A has a relatively higher volatility compared to BR 4.5. A TGA method was developed to characterize volatility of bee repellents. The volatility was measured by setting up a TGA method. In the TGA pan, 0.30 mg+0.02 mg of the bee repellent of interest is applied in an even layer on the bottom of the TGA pan immediately before starting the measurement. The TGA is programmed to have a balance purge flow of 40 mL/min and a sample purge flow of 60 mL/min. The TGA ramps from 25° C. to 40° C. at a rate of 5° C. per minute. Then the temperature is held isothermally at 40° C. for 15 hours. After the test has been completed, the slope is calculated for the % loss per minute between 800-900 minutes and the results are reported. The smaller the slope, the less the volatility. The volatility of BR3.3A measured by the above method has a slope of −4.61E-03%/min, and the slope for BR4.5 is −1.81E-04%/min.

A further data set relates to honey bees. The data set is described as follows: Field study on flowering buckwheat patches, honey bee counts. The data set is classed as in vivo. The settings on record: emulsifiable concentrate sprayed at 4 kg/hectare; counts at 15 min, 30 min, 1 hour, 24 hours. The protocol:
In this field study, 12 patches of buckwheat were planted, each measuring approximately 2 m×2 m in size in the agricultural operations field. When the flowering was estimated to be >50%, the experiments were performed. Each patch was divided into 2 approximately equal parts based on flowers by observation, one side for treatment spray and the other as control solvent (water) spray (FIG. 9A). The patches for different treatments were in a block design and the treatment side in a patch was randomly assigned as water or treatment (FIG. 9B). The test chemicals in emulsifiable concentrate form were dissolved in water in a tank to spray at the rate equivalent to 4 kg/hectare. After the spraying the numbers of honey bees present on each side of each patch was counted by 3 human observers at the following time points: 15 min, 30 min, 1 hour, 24 hours. The average number of bees at each time point were used to calculate the percentage decrease in numbers of bees on the treatment side relative to the water side and plotted (FIG. 9C).

With `CCCC(=O)CCc1ccccc1` [1-phenyl-3-hexanone], the “TGA volatility @ 40° C. (weight loss %/min)” value in data set [1] was found to be 1.37E−02 weight loss %/min. The same measure, in the same setting: for `CCCCCCCCC(C)=O` [2-Decanone, reference compound] the value was 0.1623 weight loss %/min. On the same count and under the same terms, for `CCNC(=O)c1cccc(Br)c1` [3-bromo-N-ethylbenzamide] the value was 1.40E−04 weight loss %/min. On to `COCCC(=O)Oc1ccccc1` [BR 3.1, Phenyl 3-methoxy-propanoate], for which, in data set [2], the “% honey left on repellent side” value came out at 99.17%, the “First choice Preference Index (repellent side)” value (shortened to “First choice Preference Index”) was −0.8333 and the “Honey consumption Preference Index (repellent side)” value (“Honey consumption Preference Index” for short) is −0.9166. On to `CCOC(=O)CC1CCc2ccccc21` (stereo not shown) [BR 3.3A, ethyl 2-(2,3-dihydro-1H-inden-1-yl)acetate], for which, in data set [2], the “% honey left on repellent side” value was 95.83%, the “First choice Preference Index” value is on record as −1 and the “Honey consumption Preference Index” value is −1. The “slope, % loss per minute (TGA volatility)” value in data set [3] is given as −4.61E-03 %/min. On to `CCCC(=O)CCc1ccccc1` [BR 3.4, 1-Phenyl-3-hexanone], for which, in data set [2], the “% honey left on repellent side” value is on record as 99.72%, the “First choice Preference Index” value is listed as −1 and the “Honey consumption Preference Index” value is on record as −1. With `CCCCCC(=O)c1ccccc1` [BR 3.5, Hexanophenone], in data set [2], the “% honey left on repellent side” value came out at 100%, the “First choice Preference Index” value is −1 and the “Honey consumption Preference Index” value is −1. Regarding `CCOCCC(=O)N1CCc2ccccc21` [BR 3.9, 1-(2,3-Dihydro-1H-indol-1-yl)-3-ethoxy-1-propanone], in data set [2], the “First choice Preference Index” value was −0.6 and the “Honey consumption Preference Index” value is −0.8. `CCOCCCNC(=O)c1ccccc1I` [BR 3.30, N-(3-ethoxypropyl)(2-iodophenyl) carboxamide]: in data set [2], the “% honey left on repellent side” value worked out at 80.45%, the “First choice Preference Index” value was −0.733 and the “Honey consumption Preference Index” value is given as −0.8. Consider `C/C(=C\C(=O)c1ccccc1)c1ccccc1` [BR 3.42, (2E)-1,3-Diphenyl-2-buten-1-on], for which, in data set [2], the “First choice Preference Index” value was −0.772 and the “Honey consumption Preference Index” value is given as −0.727. Take `CCNC(=O)c1cccc(Br)c1` [BR 3.47, 3-bromo-N-ethylbenzamide]: in data set [2], the “% honey left on repellent side” value is 95.42%, the “First choice Preference Index” value is recorded as −1 and the “Honey consumption Preference Index” value was −0.6666.

Consider `CCOC(=O)c1ccccc1I` [BR 3.81, Ethyl 2-iodobenzoate], for which, in data set [2], the “% honey left on repellent side” value came to 99.17%, the “First choice Preference Index” value is on record as −0.9 and the “Honey consumption Preference Index” value is reported as −0.9. Also, the “numbers of honey bees on treatment side relative to water side” value in the data set with honey bees is “showed a decrease in numbers of honey bees”. In the case of `O=C(/C=C/c1cccnc1)c1ccncc1` [BR 4.4, 3-(3-Pyridinyl)-1-(4-pyridinyl)-2-propen-1-one], in data set [2], the “First choice Preference Index” value is −0.7142 and the “Honey consumption Preference Index” value is reported as −0.7143. Take `CC(C)OC(C(=O)c1ccccc1)c1ccccc1` (stereo not shown) [BR 4.5, 2-Isopropox y-1,2-diphenyl-ethanone]: in data set [2], the “First choice Preference Index” value was −0.8947 and the “Honey consumption Preference Index” value is given as −0.8947. In data set [3], the “slope, % loss per minute (TGA volatility)” value is on record as −1.81E-04 %/min. Consider `CCN(CC)C(=O)c1cccc(C)c1` [DEET, N,N-diethyl-meta-toluamide, reference compound], for which the “TGA volatility @ 40° C. (weight loss %/min)” value in data set [1] amounted to 2.29E−03 weight loss %/min. Take `CCOC(=O)CNc1ccccc1C#N` [Ethyl 2-(2-Cyanoanilino) acetate]: the “TGA volatility @ 40° C. (weight loss %/min)” value in data set [1] amounted to 4.04E−05 weight loss %/min. Same read-out and setting: for `CCOC(=O)c1ccccc1I` [Ethyl 2-iodobenzoate] the value was 6.66E−03 weight loss %/min; for `CCOC(=O)Cc1cccc(C)c1` [Ethyl m-Tolylacetate], 2.73E−02 weight loss %/min; for `CCCCCC(=O)c1ccccc1` [Hexanophenone], 1.11E−02 weight loss %/min. `CCOCCCNC(=O)c1ccccc1I` [N-(3-ethoxypropyl)-2-iodobenzamide]: the “TGA volatility @ 40° C. (weight loss %/min)” value in data set [1] stood at 2.16E−05 weight loss %/min. On the same count and under the same terms, for `COCCC(=O)Oc1ccccc1` [Phenyl 3-methoxypropanoate] the value was 1.66E−02 weight loss %/min; for `CCOC(=O)CC1CCc2ccccc21` (stereo not shown) [ethyl 2-(2,3-dihydro-1H-inden-1-yl) acetate], 4.61E−03 weight loss %/min.
